Test results published in PubChem BioAssay (NCI).
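Grown in 96-well plates, cells were treated for 48 hours with each compound at five concentrations. Insufficient inhibition: endpoint recorded as highest concentration tested. Here, GI50 denotes the concentration required for 50% inhibition of growth. Definition used: TGI = concentration required for complete inhibition of growth.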

Legend:
Assay in all cases: growth of human tumour cells (NCI), 48 h
NCI-H522 lung = test system: NCI-H522 lung
ACHN renal = test system: ACHN renal
OVCAR-3 ovarian = test system: OVCAR-3 ovarian
COLO 205 colon = test system: COLO 205 colon
UACC-62 melanoma = test system: UACC-62 melanoma
SF-539 CNS = test system: SF-539 CNS
MALME-3M melanoma = test system: MALME-3M melanoma
SK-MEL-2 melanoma = test system: SK-MEL-2 melanoma
OVCAR-8 ovarian = test system: OVCAR-8 ovarian
K-562 leukemia = test system: K-562 leukemia

Row | SMILES | GI50 (NCI-H522 lung) | GI50 (ACHN renal) | TGI (ACHN renal) | GI50 (OVCAR-3 ovarian) | TGI (OVCAR-3 ovarian) | GI50 (COLO 205 colon) | TGI (COLO 205 colon) | GI50 (UACC-62 melanoma) | TGI (UACC-62 melanoma) | GI50 (SF-539 CNS) | TGI (SF-539 CNS) | GI50 (MALME-3M melanoma) | TGI (MALME-3M melanoma) | GI50 (SK-MEL-2 melanoma) | TGI (SK-MEL-2 melanoma) | GI50 (OVCAR-8 ovarian) | TGI (OVCAR-8 ovarian) | GI50 (K-562 leukemia) | TGI (K-562 leukemia) | TGI (NCI-H522 lung)
1 | C=CCN1C(=O)/C(=c2\sc3n(c2=O)C2C(NN=3)N(CC)C(=O)N2CC)c2ccccc21 (stereo not given) | 0.379 µM | 0.834 µM | > 100 µM | 0.377 µM | 2.35 µM | 0.549 µM | > 20.4 µM | 0.612 µM | > 62.1 µM | 0.346 µM | 2.87 µM | 1.28 µM | > 100 µM | 2.17 µM | > 38.7 µM | 1.12 µM | > 100 µM | 0.414 µM | > 100 µM | 
2 | CCc1cccc(C(C)CC)c1N=C(NC(=O)c1ccccc1C(=O)NC(=Nc1c(CC)cccc1C(C)CC)SC)SC (stereo not given) |  |  | > 100 µM |  | > 100 µM |  | > 100 µM |  | 53.5 µM |  | 68.8 µM |  | > 100 µM |  | > 100 µM |  | > 100 µM |  | > 100 µM | 64.4 µM
3 | O=C1Cc2cc(CCn3ccnc3)c(Cl)cc2N1 | 4.74 µM | 20.3 µM | > 100 µM | 9.31 µM | 78.1 µM | 15.1 µM | > 100 µM | 7.68 µM | > 100 µM | 60 µM | > 100 µM | 79.5 µM | > 100 µM | 5.78 µM | 73.6 µM | 24.1 µM | > 100 µM | 8.26 µM | > 100 µM | 47.9 µM
4 | CCN1CCC[C@H]1c1cc(O)c2c(c1OC)C[C@H]1C[C@H]3[C@H](N)C(=O)C(C(N)=O)=C(O)[C@@]3(O)C(=O)C1=C2O | 0.0562 µM | 0.0517 µM | 0.802 µM | 0.13 µM | 3.17 µM | 0.0583 µM | 0.682 µM | 0.0668 µM | 1.3 µM | 0.0634 µM | 0.593 µM | 0.0423 µM | 0.689 µM | 0.0336 µM | 0.158 µM | 0.0587 µM | 3.01 µM | 0.0599 µM | > 100 µM | 0.799 µM
5 | OC(c1ccccc1)(c1ccccc1)c1ccccn1 |  |  | > 100 µM |  | > 100 µM |  | > 100 µM |  | > 100 µM |  | > 100 µM |  | > 100 µM |  | > 100 µM |  | > 100 µM |  | > 100 µM | > 100 µM
6 | N=C(N)n1ncc(Cl)c(Cl)c1=O |  |  | 14.3 µM |  | 3.31 µM |  | 3.43 µM |  | 5.76 µM |  | 5.42 µM |  | 4.98 µM |  | 6.93 µM |  | 4.55 µM |  | 6.36 µM | 3.43 µM
7 | O=C(c1cc(=O)c2ccc(O)cc2o1)c1ccc(Cl)cc1Cl |  |  | > 100 µM |  | > 58.9 µM |  | > 38.3 µM |  | > 100 µM |  | > 25.4 µM |  | > 94.7 µM |  | > 100 µM |  | > 100 µM |  | > 35.5 µM | > 59 µM
8 | O=C(NCCCN1CCN(CCCNC(=O)c2cnc3ccccc3n2)CC1)c1cnc2ccccc2n1 |  |  | > 100 µM |  | > 100 µM |  | > 100 µM |  | > 100 µM |  | > 100 µM |  | > 100 µM |  | > 100 µM |  | > 100 µM |  | > 100 µM | > 100 µM
9 | COc1cccc(Nc2nc(NNC(=O)Cc3ccccc3)nc(NNC(=O)c3ccncc3)n2)c1 |  |  | > 100 µM |  | > 100 µM | > 100 µM | > 100 µM | 36 µM | > 100 µM | > 100 µM | > 100 µM | > 100 µM | > 100 µM |  | > 100 µM | > 100 µM | > 100 µM | > 100 µM | > 100 µM | > 100 µM
10 | O=c1[nH]c(=S)[nH]c2c1sc(=S)n2-c1ccccc1 |  |  | > 100 µM |  | > 100 µM |  | > 100 µM |  | > 100 µM |  | > 100 µM |  | > 100 µM |  | > 100 µM |  | > 100 µM |  | > 100 µM | > 100 µM
11 | O=C(Oc1cccnc1)c1ccccc1Nc1ccnc(C(F)(F)F)c1 | 0.402 µM | 0.353 µM | > 74.6 µM | 0.141 µM | 0.453 µM | 0.156 µM | 0.363 µM | 0.313 µM | > 64.6 µM | 0.0428 µM | > 100 µM | 33.1 µM | > 100 µM | 20.2 µM | > 100 µM | 0.413 µM | > 100 µM | 0.0426 µM | > 100 µM | > 100 µM
12 | CC(=O)CC(=O)CCCC(=O)Nc1ccc(Cl)cc1C |  |  | > 100 µM |  | > 100 µM |  | > 100 µM |  | > 100 µM |  | > 100 µM |  | > 100 µM |  | > 100 µM |  | > 100 µM |  | > 100 µM | > 100 µM
13 | CN(C)CC(C(=O)c1ccccc1)c1ccccc1 (stereo not given) | 1.3 µM | 1.36 µM | 2.65 µM | 1.24 µM | 2.5 µM | 1.77 µM | 3.33 µM | 2.05 µM | 7 µM | 2.25 µM | 5.04 µM | 1.69 µM | 3.62 µM | 3.35 µM | 7.87 µM | 1.99 µM | 6.56 µM | 0.483 µM | 10.1 µM | 2.79 µM
14 | CC(C)=CC/C=C(/C)[C@H]1CC[C@]2(C)[C@@H]1CC[C@@H]1[C@@]3(C)CCC(=O)NC(C)(C)[C@@H]3CC[C@]12C | 18.4 µM | 20 µM | 43 µM | 18.3 µM | 34.1 µM | 25.3 µM | 64.7 µM | 16.9 µM | 43.5 µM | 16.5 µM | 30.5 µM | 16 µM | 30.8 µM | 27.6 µM | 82.8 µM | 26 µM | 76.7 µM | 17.3 µM | 88.2 µM | 40.2 µM
